Measurements reported in patent US10899732B2, “Substituted benzamides useful as sodium channel blockers” (GENENTECH, INC., priority 2015, dated 2021).
Where a name gives a salt, the structure may show the parent alone.

Legend:
[1] = biological target: T1, hNav1.7 (Homo sapiens, UniProt Q15858); experiment: Tritiated sulfonamide competitive binding to membranes from cells expressing hNav1.7 and the β1 subunit (LBA); conditions: competition with 100 pM [3H]compound, 18 h, room temperature; read-out: Nav1.7 (LBA)
T1 construct: expressed in transfected cells
T1 sequence (Q15858 1-1977 isoform Q15858-3): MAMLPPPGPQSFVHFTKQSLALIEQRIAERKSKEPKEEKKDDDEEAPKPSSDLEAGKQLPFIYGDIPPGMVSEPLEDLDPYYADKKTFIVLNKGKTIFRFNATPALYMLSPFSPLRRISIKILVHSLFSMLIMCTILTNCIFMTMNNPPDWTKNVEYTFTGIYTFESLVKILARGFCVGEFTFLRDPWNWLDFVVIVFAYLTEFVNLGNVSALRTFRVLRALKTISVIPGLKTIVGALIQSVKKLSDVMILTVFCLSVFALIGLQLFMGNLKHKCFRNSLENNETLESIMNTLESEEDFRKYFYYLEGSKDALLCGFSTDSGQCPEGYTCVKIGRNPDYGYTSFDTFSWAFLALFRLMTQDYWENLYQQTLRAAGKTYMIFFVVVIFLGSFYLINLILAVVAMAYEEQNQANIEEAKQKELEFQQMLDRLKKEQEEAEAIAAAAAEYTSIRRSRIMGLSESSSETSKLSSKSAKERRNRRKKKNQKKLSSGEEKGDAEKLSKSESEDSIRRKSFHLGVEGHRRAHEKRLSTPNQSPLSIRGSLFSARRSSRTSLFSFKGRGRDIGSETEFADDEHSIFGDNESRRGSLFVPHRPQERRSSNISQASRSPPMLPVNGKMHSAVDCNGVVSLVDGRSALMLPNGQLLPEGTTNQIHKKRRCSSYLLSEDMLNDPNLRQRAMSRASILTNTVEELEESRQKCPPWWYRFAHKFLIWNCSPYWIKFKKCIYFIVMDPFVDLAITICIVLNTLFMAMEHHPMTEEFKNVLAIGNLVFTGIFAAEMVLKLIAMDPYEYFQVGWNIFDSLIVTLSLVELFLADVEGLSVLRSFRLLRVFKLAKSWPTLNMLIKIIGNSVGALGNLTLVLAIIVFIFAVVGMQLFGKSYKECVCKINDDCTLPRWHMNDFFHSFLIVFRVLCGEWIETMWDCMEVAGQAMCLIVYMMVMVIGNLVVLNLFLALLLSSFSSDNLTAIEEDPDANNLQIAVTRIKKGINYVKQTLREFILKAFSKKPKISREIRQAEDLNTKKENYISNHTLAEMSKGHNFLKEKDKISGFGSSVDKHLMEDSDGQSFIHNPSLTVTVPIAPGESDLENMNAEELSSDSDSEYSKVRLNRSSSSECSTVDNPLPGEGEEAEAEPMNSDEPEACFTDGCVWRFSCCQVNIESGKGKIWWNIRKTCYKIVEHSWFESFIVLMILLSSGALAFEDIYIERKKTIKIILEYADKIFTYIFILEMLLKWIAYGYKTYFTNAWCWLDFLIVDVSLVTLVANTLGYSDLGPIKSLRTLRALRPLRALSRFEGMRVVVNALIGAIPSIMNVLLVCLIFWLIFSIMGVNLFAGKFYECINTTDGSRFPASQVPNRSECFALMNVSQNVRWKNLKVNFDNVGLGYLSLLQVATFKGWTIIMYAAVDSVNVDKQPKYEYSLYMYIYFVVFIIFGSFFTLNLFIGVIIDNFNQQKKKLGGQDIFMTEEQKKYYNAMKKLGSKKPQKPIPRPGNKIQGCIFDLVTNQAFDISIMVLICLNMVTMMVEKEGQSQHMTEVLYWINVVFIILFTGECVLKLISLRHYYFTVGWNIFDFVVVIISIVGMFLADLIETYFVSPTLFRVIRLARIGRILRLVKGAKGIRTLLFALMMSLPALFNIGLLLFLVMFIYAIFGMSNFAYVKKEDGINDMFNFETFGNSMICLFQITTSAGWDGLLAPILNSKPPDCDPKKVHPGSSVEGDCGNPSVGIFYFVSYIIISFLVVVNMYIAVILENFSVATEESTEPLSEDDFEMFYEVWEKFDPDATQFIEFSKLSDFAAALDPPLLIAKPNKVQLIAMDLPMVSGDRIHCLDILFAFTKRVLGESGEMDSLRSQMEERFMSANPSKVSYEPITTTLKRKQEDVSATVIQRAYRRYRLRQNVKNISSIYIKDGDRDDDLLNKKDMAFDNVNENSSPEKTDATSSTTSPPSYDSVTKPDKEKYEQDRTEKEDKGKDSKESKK
T1 sequence (Q07699 19-218 partner): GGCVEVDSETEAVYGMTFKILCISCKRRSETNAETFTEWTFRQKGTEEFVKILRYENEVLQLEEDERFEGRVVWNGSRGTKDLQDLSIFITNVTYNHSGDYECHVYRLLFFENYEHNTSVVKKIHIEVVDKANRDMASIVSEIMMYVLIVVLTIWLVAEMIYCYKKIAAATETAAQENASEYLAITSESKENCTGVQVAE
Protocol: Tritiated Sulfonamide Binding to Membranes Isolated from Cells that Heterologously Express hNav1.7 and the β1 Subunit
Preparation of membranes containing recombinantly expressed sodium channels: Frozen recombinant cell pellets were thawed on ice and diluted to 4 times the cell pellet weight with ice cold 50 mM Tris HCl, pH 7.4 buffer. The cell suspensions were homogenized on ice using a motorized glass dounce homogenizer. Homogenates were further diluted 8.4 times with ice cold 50 mM Tris HCl, pH 7.4 buffer and then centrifuged at 200×g at 4° C. for 15 min. The supernatants were collected and centrifuged at 10000×g at 4° C. for 50 min. The pellets were then re-suspended in 100 mM NaCl, 20 mM Tris HCl, pH 7.4 buffer containing 1% v/v protease inhibitors (Calbiochem) and re-homogenized on ice. The homogenized membranes were then processed through a syringe equipped with a 26 gauge needle. Protein concentrations were determined by Bradford Assay and the membranes were stored at −80° C.
Saturation experiments. A competitive NaV1.7 inhibitor having a methyl group was tritiated. Three tritiums were incorporated in place of methyl hydrogens to generate [^3H]compound. Binding of this radioligand was preformed in 5 mL borosilicate glass test tubes at room temperature. Binding was initiated by adding membranes to increasing concentrations of [^3H]compound in 100 mM NaCl, 20 mM Tris HCl, pH 7.4 buffer containing 0.01% w/v bovine serum albumin (BSA) for 18 h. Non-specific binding was determined in the presence of 1 μM unlabelled compound. After 18 h, the reactants were filtered through GF/C glass fiber filters presoaked in 0.5% w/v polyethylene imine. Filters were washed with 15 mL ice cold 100 mM NaCl, 20 mM Tris HCl, pH 7.4 buffer containing 0.25% BSA to separate bound from free ligand. [^3H]compound bound to filters was quantified by liquid scintillation counting.
Binding reactions were performed in 96-well polypropylene plates at room temperature for 18 h. In 360 μL, membranes were incubated with 100 pM [^3H]compound and increasing concentrations of Test Compound. Non-specific binding was defined in the presence of 1 μM unlabelled compound. Reactions were transferred and filtered through 96-well glass fiber/C filter plates presoaked with 0.5% polyethylene imine. The filtered reactions were washed 5 times with 200 μL ice cold buffer containing 0.25% BSA. Bound radioactivity was determined by liquid scintillation counting.
Data Analysis: For saturation experiments, non-specific binding was subtracted from total binding to provide specific binding and these values were recalculated in terms of pmol ligand bound per mg protein. Saturation curves were constructed and dissociation constants were calculated using the single site ligand binding model: Beq=(Bmax*X)/(X+Kd), where Beq is the amount of ligand bound at equilibrium, Bmax is the maximum receptor density, Kd is the dissociation constant for the ligand, and X is the free ligand concentration. For competition studies percent inhibition was determined and IC50 values were calculated using a 4 parameter logistic model (% inhibition=(A+((B−A)/(1+((x/C)^D)))) using XLfit, where A and B are the maximal and minimum inhibition respectively, C is the IC50 concentration and D is the (Hill) slope.

[2] = biological target: T2, NaV1.7 (Homo sapiens, UniProt Q15858); experiment: Patch voltage clamp electrophysiology assay (EP), NaV1.7 in HEK-293 cells; format: cell-based; conditions: HEK-293, β1 coexpressed, held at -60 mV (inactivated state)
T2 construct: expression vector containing the full-length cDNA coding for the desired human sodium channel α-subunit; expressed in transfected cells; host or cells: HEK-293
T2 sequence (Q15858 1-1977 isoform Q15858-3): as the sequence (Q15858 1-1977 isoform Q15858-3) above
T2 sequence (Q07699 19-218 partner): as the sequence (Q07699 19-218 partner) above
Source text: (§1) Electrophysiological Assay (EP) (In Vitro Assay)
(§2) Patch voltage clamp electrophysiology allows for the direct measurement and quantification of block of voltage-gated sodium channels (NaV's), and allows the determination of the time- and voltage-dependence of block which has been interpreted as differential binding to the resting, open, and inactivated states of the sodium channel (Hille, B., Journal of General Physiology (1977), 69: 497-515).
(§3) The following patch voltage clamp electrophysiology studies were performed on representative compounds of the invention using human embryonic kidney cells (HEK), permanently transfected with an expression vector containing the full-length cDNA coding for the desired human sodium channel α-subunit, grown in culture media containing 10% FBS, 1% PSG, and 0.5 mg/mL G418 at 37° C. with 5% CO2. […] NaV1.7 and NaV1.5 cDNAs (NM_002977 and AC137587; SCN5A, respectively) were stably expressed in HEK-293 cells. The β1 subunit was coexpressed in both the NaV1.7 and NaV1.5 cell lines.
(§4) Sodium currents were measured using the patch clamp technique in the whole-cell configuration using either a PatchXpress automated voltage clamp or manually using an Axopatch 200B (Axon Instruments) or Model 2400 (A-M systems) amplifier. The manual voltage clamp protocol was as follows: Borosilicate glass micropipettes were fire-polished to a tip diameter yielding a resistance of 2-4 Mohms in the working solutions. The pipette was filled with a solution comprised of: 5 mM NaCl, 10 mM CsCl, 120 mM CsF, 0.1 mM CaCl2, 2 mM MgCl2, 10 mM HEPES, 10 mM EGTA; and adjusted to pH 7.2 with CsOH. The external solution had the following composition: 140 mM NaCl, 5 mM KCl, 2 mM CaCl2, 1 mM MgCl2, 10 mM HEPES; and adjusted to pH 7.4 with NaOH. In some studies, the external sodium was reduced by equimolar replacement with choline. Osmolarity in the CsF internal and NaCl external solutions was adjusted to 300 mOsm/kg and 310 mOsm/kg with glucose, respectively. All recordings were performed at ambient temperature in a bath chamber with a volume of 150 μL. Control sodium currents were measured in 0.5% DMSO. Controls and representative compounds of the invention were applied to the recording chamber through a 4-pinch or 8-pinch valve bath perfusion system manufactured by ALA Scientific Instruments.
(§5) Currents were recorded at 40 kHz sampling frequency, filtered at […], and stored using a Digidata-1322A analogue/digital interface with the pClamp software (Axon Instruments). Series resistance compensation was applied (60-80%). […] All statistics in this study are given as mean±SD.
(§6) The membrane potential was maintained at a voltage where inactivation of the channel is complete (which was −60 mV for both NaV1.7 and NaV1.5). The voltage is then stepped back to a very negative (Vhold=[…]) voltage for 20 ms and then a test pulse is applied to quantify the compound block. The 20 ms brief repolarization was long enough for compound-free channels to completely recover from fast inactivation, but the compound-bound channels recovered more slowly such that negligible recovery could occur during this interval. The percent decrease in sodium current following wash-on of compound was taken as the percent block of sodium channels.

[3] = biological target: T3, NaV1.5 (Homo sapiens, UniProt Q14524); experiment: Patch voltage clamp electrophysiology assay (EP), NaV1.5 in HEK-293 cells; format: cell-based; conditions: HEK-293, β1 coexpressed, held at -60 mV (inactivated state)
T3 construct: expression vector containing the full-length cDNA coding for the desired human sodium channel α-subunit; expressed in transfected cells; host or cells: HEK-293
T3 sequence (Q14524 whole entry): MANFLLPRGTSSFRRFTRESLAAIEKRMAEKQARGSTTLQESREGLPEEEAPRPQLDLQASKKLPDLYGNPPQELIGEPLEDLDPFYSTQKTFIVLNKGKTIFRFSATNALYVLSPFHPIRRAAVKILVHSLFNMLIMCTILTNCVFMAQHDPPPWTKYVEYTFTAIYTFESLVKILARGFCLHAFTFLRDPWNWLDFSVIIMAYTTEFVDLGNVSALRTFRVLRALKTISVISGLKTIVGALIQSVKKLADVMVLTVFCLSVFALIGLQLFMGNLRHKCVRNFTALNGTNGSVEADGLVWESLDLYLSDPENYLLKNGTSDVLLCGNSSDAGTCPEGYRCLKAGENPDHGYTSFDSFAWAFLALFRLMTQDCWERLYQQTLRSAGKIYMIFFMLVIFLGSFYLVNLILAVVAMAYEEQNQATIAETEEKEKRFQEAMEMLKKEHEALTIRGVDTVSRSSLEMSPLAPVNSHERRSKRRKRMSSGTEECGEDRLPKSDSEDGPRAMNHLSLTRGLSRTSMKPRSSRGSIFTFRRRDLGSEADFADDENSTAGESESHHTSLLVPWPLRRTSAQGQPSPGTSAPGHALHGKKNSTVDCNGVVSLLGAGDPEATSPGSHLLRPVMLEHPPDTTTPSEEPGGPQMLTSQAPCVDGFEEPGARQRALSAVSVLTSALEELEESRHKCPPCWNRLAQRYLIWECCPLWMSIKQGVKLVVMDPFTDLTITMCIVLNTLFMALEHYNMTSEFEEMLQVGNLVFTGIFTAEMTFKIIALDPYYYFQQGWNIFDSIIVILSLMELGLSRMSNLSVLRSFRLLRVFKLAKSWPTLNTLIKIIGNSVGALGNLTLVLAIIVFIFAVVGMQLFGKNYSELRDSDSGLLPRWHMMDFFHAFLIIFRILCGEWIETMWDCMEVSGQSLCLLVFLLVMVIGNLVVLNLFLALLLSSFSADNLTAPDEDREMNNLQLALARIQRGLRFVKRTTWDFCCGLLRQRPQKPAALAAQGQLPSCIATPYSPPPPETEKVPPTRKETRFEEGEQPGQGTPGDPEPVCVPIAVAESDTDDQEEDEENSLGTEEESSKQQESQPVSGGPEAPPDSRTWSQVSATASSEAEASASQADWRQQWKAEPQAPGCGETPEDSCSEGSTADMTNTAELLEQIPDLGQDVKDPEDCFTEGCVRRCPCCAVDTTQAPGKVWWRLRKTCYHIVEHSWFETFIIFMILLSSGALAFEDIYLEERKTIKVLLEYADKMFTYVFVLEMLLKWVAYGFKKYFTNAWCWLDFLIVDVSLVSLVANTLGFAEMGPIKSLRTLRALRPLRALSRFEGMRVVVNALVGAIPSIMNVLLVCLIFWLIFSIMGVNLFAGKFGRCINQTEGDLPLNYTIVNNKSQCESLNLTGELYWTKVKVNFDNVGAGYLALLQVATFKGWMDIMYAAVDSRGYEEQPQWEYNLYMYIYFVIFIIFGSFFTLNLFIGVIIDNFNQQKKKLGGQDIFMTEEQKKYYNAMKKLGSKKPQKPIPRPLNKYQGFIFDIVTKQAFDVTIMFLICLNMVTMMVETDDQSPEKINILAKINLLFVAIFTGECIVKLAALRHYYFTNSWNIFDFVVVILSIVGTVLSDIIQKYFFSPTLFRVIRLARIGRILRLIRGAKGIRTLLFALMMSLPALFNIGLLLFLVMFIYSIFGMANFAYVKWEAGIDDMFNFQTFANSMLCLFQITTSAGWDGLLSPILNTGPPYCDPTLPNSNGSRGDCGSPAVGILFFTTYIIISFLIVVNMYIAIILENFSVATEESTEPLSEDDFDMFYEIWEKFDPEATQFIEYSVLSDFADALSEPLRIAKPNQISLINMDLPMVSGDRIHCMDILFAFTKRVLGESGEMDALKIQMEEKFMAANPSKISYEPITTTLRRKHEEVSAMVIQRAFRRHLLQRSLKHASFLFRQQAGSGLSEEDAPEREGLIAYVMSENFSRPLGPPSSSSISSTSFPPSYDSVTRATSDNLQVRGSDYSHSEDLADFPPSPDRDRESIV
Source text: as §1, §2, §3, §4, §5, §6

SMILES	IC50 [1] [nM]	IC50 [2] [nM]	IC50 ([3]; human, pH 7.4) [nM]	IC50 [3] [nM]
Cc1nn([C@@H]2CCN(C(=O)c3cc(Cl)cc(Cl)c3)C2)c2cc(F)c(C(=O)NS(=O)(=O)C3CC3)cc12 [Example 21, (R)-N-(cyclopropylsulfonyl)-1-(1-(3,5-dichlorobenzoyl)pyrrolidin-3-yl)-6-fluoro-3-methyl-1H-indazole-5-carboxamide]	1500	4000	≥ 30000	
Cc1nn([C@@H]2CCN([C@H](C)c3cc(Cl)cc(OC(F)(F)F)c3)C2)c2cc(F)c(C(=O)NS(=O)(=O)C3CC3)cc12 [Example 22, 1-((R)-1-((R)-1-(3-chloro-5-(trifluoromethoxy)phenyl)ethyl)pyrrolidin-3-yl)-N-(cyclopropylsulfonyl)-6-fluoro-3-methyl-1H-indazole-5-carboxamide, trifluoroacetic acid salt]	20	110		4800
Cc1nn(CC2CN(C(c3ccccc3)c3ccccc3)C2)c2cc(F)c(C(=O)NS(C)(=O)=O)cc12 [Example 23, 1-((1-benzhydrylazetidin-3-yl)methyl)-6-fluoro-3-methyl-N-(methylsulfonyl)-1H-indazole-5-carboxamide]	280	550	≥ 30000	
Cc1nn(C2CN(C(c3ccccc3)c3ccccc3)C2)c2cc(F)c(C(=O)NS(C)(=O)=O)cc12 [Example 24, 1-(1-benzhydrylazetidin-3-yl)-6-fluoro-3-methyl-N-(methylsulfonyl)-1H-indazole-5-carboxamide]	48	87		8600
Cc1nn(C2CCC(C(C)C)CC2)c2cc(F)c(C(=O)NS(C)(=O)=O)cc12 (stereo not drawn) [Example 33, 6-fluoro-1-(4-isopropylcyclohexyl)-3-methyl-N-(methylsulfonyl)-1H-indazole-5-carboxamide]	20	79		20000
Cc1nn(-c2cnc(OCC(C)C)c(Cl)c2)c2cc(F)c(C(=O)NS(=O)(=O)N3CCC3)cc12 [Example 42, N-(azetidin-1-ylsulfonyl)-1-(5-chloro-6-isobutoxypyridin-3-yl)-6-fluoro-3-methyl-1H-indazole-5-carboxamide]	7	71	≥ 30000	

More lines, main results first:

IC50 [1] [nM]	IC50 [2] [nM]	SMILES	IC50 ([3]; human, pH 7.4) [nM]	IC50 [3] [nM]
180	1000	Cc1nn(C23CC4CC(CC(C4)C2)C3)c2cc(F)c(C(=O)NS(=O)(=O)N3CCC3)cc12 [Example 35, 1-((3s,5s,7s)-adamantan-1-yl)-N-(azetidin-1-ylsulfonyl)-6-fluoro-3-methyl-1H-indazole-5-carboxamide]	≥ 30000	
370	3100	Cc1nn(C23CC4CC(CC(C4)C2)C3)c2cc(F)c(C(=O)NS(C)(=O)=O)cc12 [Example 36, 1-((3s,5s,7s)-adamantan-1-yl)-6-fluoro-3-methyl-N-(methylsulfonyl)-1H-indazole-5-carboxamide]	≥ 30000	
490	3600	Cc1nn(C2CCCCC2)c2cc(F)c(C(=O)NS(=O)(=O)N3CCC3)cc12 [Example 37, N-(azetidin-1-ylsulfonyl)-1-cyclohexyl-6-fluoro-3-methyl-1H-indazole-5-carboxamide]	≥ 30000	
1000	11000	Cc1nn(C2CCCCC2)c2cc(F)c(C(=O)NS(C)(=O)=O)cc12 [Example 38, 1-cyclohexyl-6-fluoro-3-methyl-N-(methylsulfonyl)-1H-indazole-5-carboxamide]	≥ 30000	
8	39	Cc1nn(-c2cnc(OCC(C)C)c(Cl)c2)c2cc(F)c(C(=O)NS(C)(=O)=O)cc12 [Example 39, 1-(5-chloro-6-isobutbxypyridin-3-yl)-6-fluoro-3-methyl-N-(methylsulfonyl)-1H-indazole-5-carboxamide]	≥ 30000	
410	1200	Cc1nn(CC23CC4CC(CC(C4)C2)C3)c2cc(F)c(C(=O)N[S@TB2](C)(=O)=O)cc12 [Example 40, 1-(((1s,3s)-adamantan-1-yl)methyl)-6-fluoro-3-methyl-N-(methylsulfonyl)-1H-indazole-5-carboxamide]	≥ 30000	
300	3400	Cc1nn(CC23CC4CC(CC(C4)C2)C3)c2cc(F)c(C(=O)N[S@TB3](=O)(=O)N3CCC3)cc12 [Example 41, 1-(((1s,3s)-adamantan-1-yl)methyl)-N-(azetidin-1-ylsulfonyl)-6-fluoro-3-methyl-1H-indazole-5-carboxamide]	≥ 30000	
